According to article PMC9945408 (Food Chemistry: X, 2023):

Legend:
[1] = target: T1, indoleamine 2,3-dioxygenase 1 (IDO1) (Homo sapiens, UniProt P14902); assay: % inhibition at […], capillary electrophoresis enzyme assay; assay type: biochemical
[2] = target: T1, indoleamine 2,3-dioxygenase 1 (IDO1); assay: capillary electrophoresis enzyme assay; assay type: biochemical

T1 sequence (P14902 whole entry): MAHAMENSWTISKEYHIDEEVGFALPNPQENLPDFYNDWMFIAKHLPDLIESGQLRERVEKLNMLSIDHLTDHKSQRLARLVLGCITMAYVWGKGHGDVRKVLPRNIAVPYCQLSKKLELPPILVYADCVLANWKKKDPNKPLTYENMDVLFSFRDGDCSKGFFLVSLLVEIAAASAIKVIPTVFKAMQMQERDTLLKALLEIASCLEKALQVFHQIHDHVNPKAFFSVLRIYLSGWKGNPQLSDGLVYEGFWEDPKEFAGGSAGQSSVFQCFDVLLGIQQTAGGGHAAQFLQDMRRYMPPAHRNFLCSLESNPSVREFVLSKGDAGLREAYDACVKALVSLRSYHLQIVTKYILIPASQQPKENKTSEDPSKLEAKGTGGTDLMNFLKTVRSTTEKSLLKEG

O=C(/C=C/c1ccc(O)c(O)c1)O[C@H]1[C@H](O)C[C@](O)(C(=O)O)C[C@H]1OC(=O)/C=C/c1ccc(O)c(O)c1 [compound 8, Isochlorogenic acid B]
inhibition at 100 µM [1]: 19.1%

O=C(/C=C/c1ccc(O)c(O)c1)O[C@@H]1C[C@@](O)(C(=O)O)C[C@@H](O)[C@@H]1O [compound 1, Neochlorogenic acid]
inhibition at 100 µM [1]: 10.9%

O=C(/C=C/c1ccc(O)c(O)c1)O[C@@H]1[C@H](O)C[C@@](O)(C(=O)O)C[C@H]1OC(=O)/C=C/c1ccc(O)c(O)c1 [compound 10, Isochlorogenic acid C]
inhibition at 100 µM [1]: 10.9%

COc1cc(/C=C/C(=O)O)ccc1O [compound 7, Ferulic acid]
IC50 [2]: 114 µM

O=C(/C=C/c1ccc(O)c(O)c1)O[C@H]1[C@H](O)C[C@](O)(C(=O)O)C[C@H]1O [compound 3, Cryptochlorogenic acid]
inhibition at 100 µM [1]: 11.8%

COc1cc(/C=C/C(=O)O[C@@H]2C[C@](O)(C(=O)O)C[C@@H](O)[C@H]2O)ccc1O [compound 6, 5-O-Feruloylquinic acid]
inhibition at 100 µM [1]: 12.7%

COc1cc(/C=C/C(=O)O[C@@H]2C[C@@](O)(C(=O)O)C[C@@H](O)[C@@H]2O)ccc1O [compound 4, 3-O-Feruloylquinic acid]
inhibition at 100 µM [1]: 16.4%

O=C(/C=C/c1ccc(O)c(O)c1)O[C@@H]1C[C@](O)(C(=O)O)C[C@@H](O)[C@H]1O [compound 2, Chlorogenic acid]
IC50 [2]: 308 µM
